Results: ChEMBL document CHEMBL4028821, “Synthesis and structure-activity relationship study of pyrazolo[3,4-d]pyrimidines as tyrosine kinase RET inhibitors” (Bioorg Med Chem Lett, 2017)

Experiments:
BaF3 = assay: Antiproliferative activity against mouse BAF3 cells harboring CCDC6-RET fusion protein after 72 hrs by CCK8 assay; conditions: BaF3, 72 h
[1] = molecular target: Proto-oncogene tyrosine-protein kinase receptor Ret (Homo sapiens, UniProt P07949); assay: Inhibition of recombinant RET (unknown origin) using poly (Glu,Tyr) 4:1 substrate after 60 mins by ELISA
Chain of Proto-oncogene tyrosine-protein kinase receptor Ret (P07949 whole entry, the tested form may be a part): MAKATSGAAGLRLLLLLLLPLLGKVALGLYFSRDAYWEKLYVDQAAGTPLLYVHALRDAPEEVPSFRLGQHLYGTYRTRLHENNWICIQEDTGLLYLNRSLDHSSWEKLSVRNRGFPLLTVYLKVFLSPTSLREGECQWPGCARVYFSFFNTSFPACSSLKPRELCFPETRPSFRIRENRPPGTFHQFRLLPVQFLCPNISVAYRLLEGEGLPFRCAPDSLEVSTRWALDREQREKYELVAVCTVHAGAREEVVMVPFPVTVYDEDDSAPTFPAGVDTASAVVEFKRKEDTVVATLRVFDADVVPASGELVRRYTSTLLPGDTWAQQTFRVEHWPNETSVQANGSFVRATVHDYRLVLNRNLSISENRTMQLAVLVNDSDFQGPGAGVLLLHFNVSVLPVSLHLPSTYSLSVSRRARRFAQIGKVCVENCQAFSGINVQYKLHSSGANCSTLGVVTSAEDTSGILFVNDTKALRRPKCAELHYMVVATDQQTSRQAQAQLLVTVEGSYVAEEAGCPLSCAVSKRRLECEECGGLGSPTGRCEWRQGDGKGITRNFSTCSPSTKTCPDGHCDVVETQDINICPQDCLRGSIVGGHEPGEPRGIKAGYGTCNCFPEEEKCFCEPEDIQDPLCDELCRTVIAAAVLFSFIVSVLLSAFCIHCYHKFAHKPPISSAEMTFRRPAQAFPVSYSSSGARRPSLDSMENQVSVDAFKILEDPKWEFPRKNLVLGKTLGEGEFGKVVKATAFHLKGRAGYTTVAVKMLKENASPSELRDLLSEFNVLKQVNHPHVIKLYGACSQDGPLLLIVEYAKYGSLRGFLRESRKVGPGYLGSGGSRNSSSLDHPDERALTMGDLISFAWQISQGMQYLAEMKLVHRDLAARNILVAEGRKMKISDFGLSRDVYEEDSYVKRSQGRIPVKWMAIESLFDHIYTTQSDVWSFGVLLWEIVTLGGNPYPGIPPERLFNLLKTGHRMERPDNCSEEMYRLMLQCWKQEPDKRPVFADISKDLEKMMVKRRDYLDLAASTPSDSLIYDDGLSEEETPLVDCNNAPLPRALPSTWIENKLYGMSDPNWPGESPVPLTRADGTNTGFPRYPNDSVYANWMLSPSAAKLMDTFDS

[2] = molecular target: Proto-oncogene tyrosine-protein kinase receptor Ret (Mus musculus) (UniProt P35546); assay: Inhibition of RET phosphorylation in mouse BAF3 cells harboring CCDC6-RET fusion protein after 2 hrs by Western blot method; assay type: cell-based
Chain of Proto-oncogene tyrosine-protein kinase receptor Ret (Mus musculus) (P35546 whole entry, the tested form may be a part): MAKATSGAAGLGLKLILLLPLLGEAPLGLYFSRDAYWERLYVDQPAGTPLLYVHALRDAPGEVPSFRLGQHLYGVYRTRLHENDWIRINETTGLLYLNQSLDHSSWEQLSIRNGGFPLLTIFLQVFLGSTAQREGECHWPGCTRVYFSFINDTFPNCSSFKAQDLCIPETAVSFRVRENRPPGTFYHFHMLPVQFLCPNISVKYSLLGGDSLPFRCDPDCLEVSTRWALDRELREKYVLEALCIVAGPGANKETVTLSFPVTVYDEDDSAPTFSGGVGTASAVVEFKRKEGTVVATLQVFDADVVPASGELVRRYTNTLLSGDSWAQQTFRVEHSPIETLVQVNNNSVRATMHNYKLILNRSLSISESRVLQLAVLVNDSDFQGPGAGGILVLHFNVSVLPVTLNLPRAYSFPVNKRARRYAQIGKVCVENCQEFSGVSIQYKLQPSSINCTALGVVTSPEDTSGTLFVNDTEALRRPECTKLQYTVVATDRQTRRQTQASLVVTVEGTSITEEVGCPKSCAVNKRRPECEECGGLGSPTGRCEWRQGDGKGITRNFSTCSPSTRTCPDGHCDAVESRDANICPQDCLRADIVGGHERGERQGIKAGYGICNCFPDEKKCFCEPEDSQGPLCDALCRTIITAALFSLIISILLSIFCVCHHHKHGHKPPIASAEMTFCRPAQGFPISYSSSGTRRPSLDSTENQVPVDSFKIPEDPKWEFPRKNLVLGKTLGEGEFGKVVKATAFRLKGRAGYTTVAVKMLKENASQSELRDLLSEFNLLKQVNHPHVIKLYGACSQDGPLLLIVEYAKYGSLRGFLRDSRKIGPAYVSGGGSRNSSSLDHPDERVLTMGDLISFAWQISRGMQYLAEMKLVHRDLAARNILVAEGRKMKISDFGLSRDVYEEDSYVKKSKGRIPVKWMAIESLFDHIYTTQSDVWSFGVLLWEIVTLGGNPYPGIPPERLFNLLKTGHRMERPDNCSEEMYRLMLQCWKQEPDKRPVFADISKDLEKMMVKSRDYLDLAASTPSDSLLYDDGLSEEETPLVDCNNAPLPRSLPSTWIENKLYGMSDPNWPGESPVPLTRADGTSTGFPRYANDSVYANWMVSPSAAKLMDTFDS

[3] = molecular target: Proto-oncogene tyrosine-protein kinase receptor Ret (Mus musculus) (UniProt P35546); assay: Inhibition of RET in mouse BAF3 cells harboring CCDC6-RET fusion protein assessed as suppression of STAT3 phosphorylation after 2 hrs by Western blot method; assay type: cell-based
[4] = molecular target: Proto-oncogene tyrosine-protein kinase receptor Ret (Mus musculus) (UniProt P35546); assay: Inhibition of RET in mouse BAF3 cells harboring CCDC6-RET fusion protein assessed as suppression of RET phosphorylation after 2 hrs by Western blot method; assay type: cell-based
[5] = molecular target: Proto-oncogene tyrosine-protein kinase receptor Ret (Mus musculus) (UniProt P35546); assay: Inhibition of RET in mouse BAF3 cells harboring CCDC6-RET fusion protein assessed as suppression of AKT phosphorylation after 2 hrs by Western blot method; assay type: cell-based
[6] = molecular target: Vascular endothelial growth factor receptor 2 (Homo sapiens, UniProt P35968); assay: Inhibition of VEGFR2 (unknown origin) at 1 uM
Chain of Vascular endothelial growth factor receptor 2 (P35968 whole entry): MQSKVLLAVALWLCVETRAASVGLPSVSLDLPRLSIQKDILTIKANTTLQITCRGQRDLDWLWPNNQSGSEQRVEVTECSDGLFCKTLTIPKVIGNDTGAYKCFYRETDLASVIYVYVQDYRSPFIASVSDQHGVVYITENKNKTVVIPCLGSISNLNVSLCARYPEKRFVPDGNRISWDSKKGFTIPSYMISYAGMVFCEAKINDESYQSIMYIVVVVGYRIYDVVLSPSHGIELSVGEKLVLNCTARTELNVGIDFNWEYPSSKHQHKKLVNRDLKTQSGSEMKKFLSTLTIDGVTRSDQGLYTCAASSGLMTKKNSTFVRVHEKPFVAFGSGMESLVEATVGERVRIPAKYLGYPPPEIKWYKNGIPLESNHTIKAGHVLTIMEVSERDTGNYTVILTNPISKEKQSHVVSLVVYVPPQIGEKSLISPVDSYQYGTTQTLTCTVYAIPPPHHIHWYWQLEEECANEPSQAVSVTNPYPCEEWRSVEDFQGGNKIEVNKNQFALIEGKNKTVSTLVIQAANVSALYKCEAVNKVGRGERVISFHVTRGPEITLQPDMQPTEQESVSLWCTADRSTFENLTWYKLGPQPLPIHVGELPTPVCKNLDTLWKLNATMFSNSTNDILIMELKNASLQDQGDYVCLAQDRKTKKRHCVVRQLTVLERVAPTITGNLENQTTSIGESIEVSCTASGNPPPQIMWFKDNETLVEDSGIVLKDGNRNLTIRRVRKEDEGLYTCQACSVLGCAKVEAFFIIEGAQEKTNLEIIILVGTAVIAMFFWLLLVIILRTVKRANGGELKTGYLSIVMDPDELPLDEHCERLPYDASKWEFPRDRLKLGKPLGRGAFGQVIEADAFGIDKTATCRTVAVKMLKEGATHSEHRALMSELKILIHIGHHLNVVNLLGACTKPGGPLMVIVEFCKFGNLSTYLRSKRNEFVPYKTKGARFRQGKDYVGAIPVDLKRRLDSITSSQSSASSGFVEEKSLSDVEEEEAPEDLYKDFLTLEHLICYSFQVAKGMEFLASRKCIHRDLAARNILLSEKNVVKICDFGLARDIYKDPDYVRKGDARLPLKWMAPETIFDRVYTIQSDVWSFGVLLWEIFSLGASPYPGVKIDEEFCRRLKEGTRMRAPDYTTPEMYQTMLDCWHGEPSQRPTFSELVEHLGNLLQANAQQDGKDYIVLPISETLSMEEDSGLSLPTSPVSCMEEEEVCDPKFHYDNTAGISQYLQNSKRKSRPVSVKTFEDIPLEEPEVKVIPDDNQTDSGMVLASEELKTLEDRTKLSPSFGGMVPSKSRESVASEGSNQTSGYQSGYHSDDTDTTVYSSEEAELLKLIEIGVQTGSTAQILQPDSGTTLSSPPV

IC50 (BaF3) [nM]	IC50 [1] [nM]	inhibition [2]	inhibition [3]	inhibition [4]	inhibition [5]	inhibition (INH) [6]	Compound
> 1000	56.5	–	–	–	–	–	CC(C)n1nc(C#Cc2ccccc2)c2c(N)ncnc21
454	–	–	–	–	–	–	CC(C)n1nc(-c2cc(CO)on2)c2c(N)ncnc21
433	–	Dose-dependent effect	Dose-dependent effect	Dose-dependent effect	Dose-dependent effect	Not Active	CC(O)c1cc(-c2nn(C(C)C)c3ncnc(N)c23)no1 (centres undefined)
